In PMC3071891 (Journal of inorganic biochemistry, 2010):
Where two headings read alike, the source gives them in different places.

Legend:
[1] = molecular target: T1, Giardia lamblia fructose 1,6-bisphosphate aldolase (GlFBPA) (Giardia intestinalis, UniProt A8B2U2); details: read-out: GlFBPA inhibition constant (Ki); inert substrate analog; ref [25]; cited from earlier work
[2] = molecular target: T1, Giardia lamblia fructose 1,6-bisphosphate aldolase (GlFBPA); test: GlFBPA inhibition constants, steady-state kinetics

T1 sequence (A8B2U2 whole entry): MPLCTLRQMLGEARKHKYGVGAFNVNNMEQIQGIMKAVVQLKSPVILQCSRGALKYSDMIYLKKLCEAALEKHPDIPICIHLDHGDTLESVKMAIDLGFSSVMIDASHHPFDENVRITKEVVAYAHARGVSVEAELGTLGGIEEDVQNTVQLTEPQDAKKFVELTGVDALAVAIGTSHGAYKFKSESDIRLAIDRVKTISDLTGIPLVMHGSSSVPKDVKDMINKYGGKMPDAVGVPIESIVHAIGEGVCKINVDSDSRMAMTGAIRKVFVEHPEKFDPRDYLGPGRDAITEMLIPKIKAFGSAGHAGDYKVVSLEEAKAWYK

Compound | Ki [1] [µM] | Ki [2] [µM]
O=C(COP(=O)(O)O)[C@@H](O)[C@@H](O)[C@H](O)COP(=O)(O)O [TBP, tagatose 1,6-bisphosphate] | 1 | 
O=c1c(O)cccn1CP(=O)(O)O [Compound 1, N-phosphonomethyl-3-hydroxy-2-pyridone] |  | 1200 ± 200
